Measurements from patent US20200404907A1, “METHOD OF REDUCING CROP DAMAGE” (BAYER AKTIENGESELLSCHAFT, priority 2018, published 2020).

What was measured:
[1] = system: wheat seeds (winter wheat, TRZAW); assay: Prior-art method: post-emergence herbicide and tank-mix safener, visual crop damage in greenhouse pots; conditions: herbicide 200 g/ha post-emergence (BBCH11); no safener; 14 days after application; mean of at least 3 replicates
[2] = system: wheat seeds (winter wheat, TRZAW); assay: Method C: safener seed treatment then post-emergence herbicide plus safener tank mix, visual crop damage; type: in vivo
Description: (§1) For the safener seed treatment, sufficient seeds were weighed into screw top glass bottles approximately twice the volume of the seeds.
(§2) The safener (mefenpyr-diethyl, formulated as suspension concentrate (SC)) was weighed out so that the required rates (g a.i./kg seed) would be obtained, dissolved in water (1 ml water per 10 g of seeds), and added to the seeds to produce a slurry.
(§3) The bottles were capped and then placed in an overhead shaker (set at medium speed for up to 1 hour) so that the seeds were evenly coated with the slurry. The bottles were uncapped and the seeds were sown as described above.
(§4) For the seed treatment process, the blind formulation (the SC formulation without the safener mefenpyr-diethyl) was used as seed treatment as described above.

[3] = system: wheat seeds (winter wheat, TRZAW); assay: Method A: safener seed treatment then post-emergence herbicide, visual crop damage in greenhouse pots; type: in vivo
Description: as §1, §2, §3, §4

[4] = system: wheat seeds (winter wheat, TRZAW); assay: Method D: safener seed treatment then pre-emergence herbicide plus safener tank mix, visual crop damage; type: in vivo
Description: as §1, §2, §3, §4

[5] = herbicide 200 g/ha post-emergence (BBCH11), no safener, 14 days after application
[6] = safener seed treatment 0.5 g/kg only, no herbicide

SMILES	% crop damage [1] [%]	% crop damage [2, 5] [%]	% crop damage [3, 5] [%]	% crop damage ([4]; herbicide 50 g/ha pre-emergence, no safener, 14 days after application) [%]	% crop damage ([2]; safener 200 g/ha in tank mix post-emergence only, no herbicide, 14 days after application) [%]	% crop damage [2, 6] [%]	% crop damage [3, 6] [%]	% crop damage ([4]; safener 200 g/ha in tank mix pre-emergence only, no herbicide, 14 days after application) [%]	% crop damage [4, 6] [%]
Cc1ccccc1CO[C@@H]1C[C@@]2(C(C)C)CC[C@]1(C)O2 (racemic) [Herbicide post-em., Cinmethylin]	28	28	28	17	–	–	–	–	–
CCOC(=O)C1=NN(c2ccc(Cl)cc2Cl)C(C)(C(=O)OCC)C1 (stereo not drawn) [Safener seed treatment, ethyl 1-(2,4-dichlorophenyl)-5-(ethoxycarbonyl)-5-methyl-2-pyrazoline-3-carboxylate]	–	–	–	–	5	0	0	5	2
